Measured values as given in patent US11073508B2, “Rapid conductance based ion channel analysis” (Arizona Board of Regents on Behalf of the University of …, priority 2017, dated 2021).

Tests used:
Type in all cases: biochemical
[1] = system: Gramicidin A (gA) channels in DPhPC BLM; experiment: Fast solution exchange with gA-functionalized BLMs, conductance protocol F (Example 1); conditions: gA-functionalized BLM on 3 μm aperture pipette; Ca^2+ switched from 0 to 1 M
Protocol: (§1) All electrophysiological measurements were performed using a HEKA Electronik EPC-10 Double patch clamp amplifier (Germany) using PatchMaster software (v2.73). Data were digitized at 20 kHz and filtered at 1 kHz, unless otherwise specified. BLM conductance was measured using several multi-step voltage protocols. All protocols were evaluated against a 21-point reference protocol that applied 50 ms potential pulses ranging from −100 to +100 mV, in 10 mV intervals. Each pulse was preceded by a 10 ms rest at a holding potential of 0 mV and followed by a 1000 ms rest to ensure the bilayer capacitance was fully discharged before proceeding to the next potential step. The slope of the i-V curve is the BLM conductance, GBLM (pA/mV), and the resistance, RBLM, is (GBLM)^−1.
A 1 mg/mL stock solution of gA in EtOH was prepared and stored at 4° C. for up to two weeks. […]
A dual-port perfusion apparatus was fabricated from a two-barrel theta capillary. […] The 10-90% response time of the solution exchange was determined by laterally translating the theta capillary tip to alternately deliver recording buffer and Ca^2+ solution to the pipette tip, which was positioned ˜200 μm from the outlet of the theta capillary tip, while monitoring the change in current through the pipette aperture at a holding potential of −20 mV. […]

[2] = system: Gramicidin A (gA) channels in DPhPC BLM; experiment: High speed solution exchange with gA-functionalized BLM, sub-ms conductance protocol (Example 2); conditions: recording buffer switched to recording buffer + 1 M Ca^2+, 0.9 ms protocol, 10 kHz filter
Description: Electrophysiological data was acquired with a HEKA EPC-10 Single patch clamp amplifier and digitized with Patchmaster software (v. 2.73). Single channel recordings were obtained at a −100 mV holding voltage, digitized at 20 kHz and filtered at 1 kHz, unless otherwise stated. Sub-millisecond conductance measurements were collected at 200 kHz and filtered at 10 kHz. Noise values were obtained from the Noise Panel present in Patchmaster software which measures instrument noise through the amplifier's 4-pole, low-pass Bessel filter.
Membrane conductance values were evaluated against a 21-point reference protocol that applied a 50 ms voltage pulses ranging from −100 to +100 mV, in 10 mV intervals. Each pulse was preceded by a 10 ms rest at a holding voltage of 0 mV and followed by a 1000 ms rest (0 mV) to ensure the bilayer capacitance was fully discharged before proceeding to the next voltage step. […]
Fast solution switching experiments were performed with a High Speed Solution Exchange-2/3 system (ALA Scientific, New York), A BLM pipette was positioned about 1 mm away and equidistant from the outflow of two tubes approximately perpendicular from one another. […] The solution composition perfusing across the BLM pipette was rapidly switched using a solenoid pinch valve and the membrane conductance was measured using the patch clamp amplifier. Membrane conductance was assessed as described above. […]

[3] = Single channel recording of gA in DPhPC BLM
Protocol: as §1
A 1 mg/mL stock solution of gA in EtOH was prepared and stored at 4° C. for up to two weeks. For use, the solution was diluted to 1 μg/mL in EtOH and 0.5-1 μL aliquots were injected into the bath solution at a position ca. 5 mm from the pipette tip while monitoring current at a holding potential of −100 mV. […]
Gramicidin A dimerizes in lipid bilayers to form non-selective, cation-permeable ICs and is widely used as a model IC for illustrating BLM formation. […] The conductance of the BLM was measured using protocols A and E with recording buffer on both sides of the membrane. […]

Molecule	decrease in normalized BLM conductance using the mean of a 1 s window before and after solution exchange [1] [%]	decrease in membrane conductance upon application of 1 M Ca^2+ [2] [%]	increase in membrane conductance by an individual gA ion channel ([3]; 1 M KCl solutions) [fA/mV]	current contributed by each gA channel ([3]; holding potential −100 mV, recording buffer 1 M KCl on both sides, DPhPC BLM, 3 μm aperture) [pA]
[Ca+2].[Cl-].[Cl-] [Ca^2+, CaCl2]	81.9±13.5	~60		
Gramicidin A [gA]			~20	~2
